Source: ChEMBL document CHEMBL3301562, “MMV Box screening against Plasmodium falciparum protein kinases and aminoacyl tRNA synthetases”

Legend:
Type in all cases: functional
[1] = target: T1, Cdk-related protein kinase 6 (Plasmodium falciparum, UniProt O77239); assay: Final concentrations were 1.5 uM ATP, 5 mM MnCl2, and 15 ug/ml PK6 in a buffer of 100 mM Tris-HCl (pH 7.5). 50 ug/mL MBP was provided as the substrate; 10 uM staurosporine was used as a control inhibitor. Incubation time was 3 hours and 40 minutes.The catalytic activity of each kinase was considered proportional to ATP consumed, as determined from measurements of residual [ATP] with the luciferase-based reagent Kinase-Glo (Promega) following incubation. Luminescence (proportional to residual [ATP]) was measured on the plate readers FLx800 (BioTek Instruments, Winooski, VT, USA) and MicroBeta2.
T1 sequence (O77239 whole entry): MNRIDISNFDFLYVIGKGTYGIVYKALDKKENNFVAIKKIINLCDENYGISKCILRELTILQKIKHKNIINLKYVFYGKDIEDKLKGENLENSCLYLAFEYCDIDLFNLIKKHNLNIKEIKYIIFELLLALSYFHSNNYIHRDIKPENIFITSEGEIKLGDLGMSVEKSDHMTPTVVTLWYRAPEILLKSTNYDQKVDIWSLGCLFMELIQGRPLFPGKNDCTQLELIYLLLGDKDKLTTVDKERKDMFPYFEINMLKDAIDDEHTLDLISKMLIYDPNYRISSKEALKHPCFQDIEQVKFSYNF

[2] = target: T2, Putative uncharacterized protein pk7 (Plasmodium falciparum, UniProt O96214); assay: Final concentrations were 1 uM ATP, 2 mM DTT, 20 mM MgCl2, 2 mM MnCl2, 0.01% BSA, and 6 ug/ml PK7, in a buffer of 20 mM Tris-HCl (pH 7.5). The enzyme itself was the only substrate present (since autophosphorylation occurs); 100 uM 1NA-PP1 was used as a control inhibitor. Incubation time was 3 hours.
T2 sequence (O96214 whole entry): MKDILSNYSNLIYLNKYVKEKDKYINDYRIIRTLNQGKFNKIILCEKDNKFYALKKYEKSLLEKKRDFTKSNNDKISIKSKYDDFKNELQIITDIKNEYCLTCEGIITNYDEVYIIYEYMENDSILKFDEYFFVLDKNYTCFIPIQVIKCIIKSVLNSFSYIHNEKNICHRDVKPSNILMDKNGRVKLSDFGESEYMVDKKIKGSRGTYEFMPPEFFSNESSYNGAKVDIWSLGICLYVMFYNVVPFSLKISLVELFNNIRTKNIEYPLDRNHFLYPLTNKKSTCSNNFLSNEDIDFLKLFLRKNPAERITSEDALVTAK

[3] = target: T3, Mitogen-activated protein kinase (Plasmodium falciparum, UniProt Q25917); assay: Final concentrations were 1 uM ATP, 0.5 mM DTT, 1 mM MgCl2, 0.5 mg/mL BSA, and 10 ug/ml MAP2 in a buffer of 50 mM HEPES (pH 7.0). 0.5 mg/mL histone III-S served as the substrate (13); 100 uM AMP-PNP, an ATP analog, was used as a control inhibitor. Incubation time was 4 hours.
T3 sequence (Q25917 whole entry): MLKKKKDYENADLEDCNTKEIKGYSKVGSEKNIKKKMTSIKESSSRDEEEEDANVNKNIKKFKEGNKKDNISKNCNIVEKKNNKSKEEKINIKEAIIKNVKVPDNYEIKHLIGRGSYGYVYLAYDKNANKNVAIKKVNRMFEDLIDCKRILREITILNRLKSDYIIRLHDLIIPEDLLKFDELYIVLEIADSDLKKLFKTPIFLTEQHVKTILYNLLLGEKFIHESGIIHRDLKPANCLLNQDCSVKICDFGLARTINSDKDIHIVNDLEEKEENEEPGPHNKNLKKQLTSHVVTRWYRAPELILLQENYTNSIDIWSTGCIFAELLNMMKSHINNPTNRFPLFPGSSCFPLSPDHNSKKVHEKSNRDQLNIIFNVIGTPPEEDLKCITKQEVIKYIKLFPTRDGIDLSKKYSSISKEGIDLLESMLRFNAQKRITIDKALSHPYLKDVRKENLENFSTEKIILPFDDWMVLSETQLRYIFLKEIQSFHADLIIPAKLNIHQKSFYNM

[4] = target: Calcium-dependent protein kinase 1 (Plasmodium falciparum, UniProt P62344); assay: MMV: CDPK1 Protein kinase inhibition assay using recombinant PfCDPK1, syntide 2 peptide substrate, ATP and KinaseGlo to measure % inhibition at 1 uM MMV box compound.
[5] = target: T4, Calcium-dependent protein kinase 4 (Plasmodium falciparum (isolate 3D7), UniProt Q8IBS5); assay: MMV: CDPK4 Protein kinase inhibition assay using recombinant PfCDPK4, syntide2 peptide substrate, ATP and KinaseGlo to measure % inhibition at 1 uM MMV box compound.
T4 sequence (Q8IBS5 whole entry): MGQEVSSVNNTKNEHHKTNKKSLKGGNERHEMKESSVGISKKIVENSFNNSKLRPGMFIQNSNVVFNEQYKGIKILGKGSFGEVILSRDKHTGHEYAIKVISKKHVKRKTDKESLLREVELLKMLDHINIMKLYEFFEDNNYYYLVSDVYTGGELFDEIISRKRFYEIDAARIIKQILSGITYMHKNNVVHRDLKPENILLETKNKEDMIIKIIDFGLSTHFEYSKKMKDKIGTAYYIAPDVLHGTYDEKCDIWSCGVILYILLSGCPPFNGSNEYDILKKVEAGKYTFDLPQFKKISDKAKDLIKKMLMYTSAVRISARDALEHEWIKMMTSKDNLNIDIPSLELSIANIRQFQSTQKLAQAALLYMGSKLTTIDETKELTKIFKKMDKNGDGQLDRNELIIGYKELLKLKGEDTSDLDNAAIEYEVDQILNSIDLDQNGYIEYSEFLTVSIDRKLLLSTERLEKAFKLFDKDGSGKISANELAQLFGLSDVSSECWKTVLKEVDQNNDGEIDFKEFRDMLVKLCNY

[6] = target: T5, Proline--tRNA ligase (Plasmodium falciparum (isolate 3D7), UniProt Q8I5R7); assay: MMV: ProRS recombinant Plasmodium falciparum Prolyl-tRNA-synthetase, assay with yeast tRNA, ATP, and proline and 3 uM MMV malaria box compound, assay read out with kinase glo as % inhibition.
T5 sequence (Q8I5R7 whole entry): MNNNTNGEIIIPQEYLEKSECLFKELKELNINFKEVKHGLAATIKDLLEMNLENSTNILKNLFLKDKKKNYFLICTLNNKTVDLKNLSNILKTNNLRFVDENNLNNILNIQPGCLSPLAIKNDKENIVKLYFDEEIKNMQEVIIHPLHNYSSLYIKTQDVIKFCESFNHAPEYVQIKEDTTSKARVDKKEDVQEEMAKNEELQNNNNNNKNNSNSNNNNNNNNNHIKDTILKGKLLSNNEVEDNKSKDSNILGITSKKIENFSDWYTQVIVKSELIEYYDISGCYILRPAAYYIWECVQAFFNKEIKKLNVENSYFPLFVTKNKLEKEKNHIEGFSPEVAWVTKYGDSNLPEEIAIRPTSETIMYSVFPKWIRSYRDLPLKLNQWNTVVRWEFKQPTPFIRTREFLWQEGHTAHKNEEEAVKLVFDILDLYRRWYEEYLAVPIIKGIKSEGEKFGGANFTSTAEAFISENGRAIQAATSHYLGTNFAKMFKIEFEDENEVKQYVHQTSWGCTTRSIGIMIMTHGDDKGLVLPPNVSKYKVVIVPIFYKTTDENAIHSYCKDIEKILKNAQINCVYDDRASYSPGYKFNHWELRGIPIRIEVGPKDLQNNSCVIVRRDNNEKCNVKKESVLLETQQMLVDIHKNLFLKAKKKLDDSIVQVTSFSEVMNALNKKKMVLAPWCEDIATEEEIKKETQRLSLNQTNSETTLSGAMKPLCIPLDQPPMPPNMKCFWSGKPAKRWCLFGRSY

[7] = target: Lysine--tRNA ligase (Plasmodium falciparum (isolate 3D7), UniProt Q8IDJ8); assay: MMV: KRS recombinant Plasmodium falciparum Lysyl-tRNA-synthetase, assay with yeast tRNA, ATP, and lysine and 3 uM MMV malaria box compound, assay read out with kinase glo as % inhibition.
Lysine--tRNA ligase, sequence (Q8IDJ8 whole entry): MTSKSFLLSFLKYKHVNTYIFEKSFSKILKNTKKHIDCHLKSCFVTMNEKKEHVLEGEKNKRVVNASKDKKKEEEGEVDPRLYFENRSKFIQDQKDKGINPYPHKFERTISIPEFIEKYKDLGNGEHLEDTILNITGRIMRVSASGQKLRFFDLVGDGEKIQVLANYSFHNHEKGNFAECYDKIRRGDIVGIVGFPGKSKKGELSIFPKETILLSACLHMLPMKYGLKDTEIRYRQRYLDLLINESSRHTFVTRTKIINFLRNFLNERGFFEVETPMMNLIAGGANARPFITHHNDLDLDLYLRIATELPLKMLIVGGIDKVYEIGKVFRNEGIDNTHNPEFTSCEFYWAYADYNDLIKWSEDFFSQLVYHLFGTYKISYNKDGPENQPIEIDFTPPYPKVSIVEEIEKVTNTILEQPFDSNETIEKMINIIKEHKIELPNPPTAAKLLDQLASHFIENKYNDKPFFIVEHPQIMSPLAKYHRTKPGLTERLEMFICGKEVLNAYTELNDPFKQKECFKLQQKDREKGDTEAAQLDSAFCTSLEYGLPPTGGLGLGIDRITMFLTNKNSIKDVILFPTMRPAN

Calcium-dependent protein kinase 1, sequence (P62344 whole entry): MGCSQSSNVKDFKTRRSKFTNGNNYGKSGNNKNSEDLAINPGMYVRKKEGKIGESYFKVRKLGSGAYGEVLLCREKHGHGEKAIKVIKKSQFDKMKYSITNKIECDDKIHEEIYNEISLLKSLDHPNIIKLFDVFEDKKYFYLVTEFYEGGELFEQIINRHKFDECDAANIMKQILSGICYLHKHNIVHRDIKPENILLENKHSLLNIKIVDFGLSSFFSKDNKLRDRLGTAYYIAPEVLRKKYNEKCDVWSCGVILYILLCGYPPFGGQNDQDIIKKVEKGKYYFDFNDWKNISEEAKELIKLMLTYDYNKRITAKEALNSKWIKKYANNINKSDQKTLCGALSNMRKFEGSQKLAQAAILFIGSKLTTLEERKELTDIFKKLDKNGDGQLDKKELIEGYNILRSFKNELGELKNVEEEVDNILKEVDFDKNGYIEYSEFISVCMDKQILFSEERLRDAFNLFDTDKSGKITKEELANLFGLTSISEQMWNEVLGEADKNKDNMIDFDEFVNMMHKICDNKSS

| Compound | IC50 [1] [µM] | IC50 [2] [µM] | IC50 [3] [µM] | IC50 [4] [µM] | IC50 [5] [µM] | IC50 [6] [µM] | IC50 [7] [µM] |
| --- | --- | --- | --- | --- | --- | --- | --- |
| O=C(Nc1ccc(-c2nc3cc(NC(=O)c4ccc(Cl)cc4)ccc3[nH]2)cc1)c1ccc(Cl)cc1 | > 1 | > 1 | > 1 | > 1 | > 1 | > 2.5 | > 2.5 |
| CCOC(=O)c1cnc2ccc(OC)cc2c1Nc1ccc(N2CCN(C)CC2)cc1 | > 1 | > 1 | > 1 | > 1 | > 1 | > 2.5 | > 2.5 |
| COc1ccccc1C(=O)ON=C(N)Cc1cccc2ccccc12 | > 1 | > 1 | > 1 | > 1 | > 1 | > 2.5 | > 2.5 |
| CN1C=C(c2ccc3ccccc3n2)C(c2c[nH]c3ccccc23)c2ccccc21 (stereo not given) | > 1 | > 1 | > 1 | > 1 | > 1 | > 2.5 | > 2.5 |
| CCOc1ccc2nc(C)cc(Nc3ccc(Br)cc3)c2c1 | > 1 | > 1 | > 1 | > 1 | > 1 | > 2.5 | > 2.5 |
| COc1cc2c3cc1Oc1c(OC)c(OC)cc4c1C(Cc1ccc(O)c(c1)Oc1ccc(cc1)CC3N(C)CC2)N(C)CC4 (stereo not given) | > 1 | > 1 | > 1 | > 1 | > 1 | > 2.5 | > 2.5 |
| CCOC(=O)c1cnc2ccc(OC)cc2c1NCc1ccccc1 | > 1 | > 1 | > 1 | > 1 | > 1 | > 2.5 | > 2.5 |
| CCOC(=O)C1=CN(C)C=C(C(=O)OCC)C1c1cc(Br)c(OCC)c(OC)c1 | > 1 | > 1 | > 1 | > 1 | > 1 | > 2.5 | > 2.5 |
| CC(C)(C)c1ccc(C2CC3=Nc4ccccc4N(C(=O)c4ccccc4Cl)C(c4ccc(F)cc4)C3=C(O)C2)cc1 (stereo not given) | > 1 | > 1 | > 1 | > 1 | > 1 | > 2.5 | > 2.5 |
| CN1CCN(c2nc(Nc3ccc(O)cc3)nc3ccccc23)CC1 | > 1 | > 1 | > 1 | > 1 | > 1 | > 2.5 | > 2.5 |
